# Assay results as given in paper PMC12305494, “Discovery of PXR Antagonist MI891 and PXR Degrader MI1013 and Their Roles in Hepatic Gene Regulation” (Journal of Medicinal Chemistry, 2025).
# Where “and” joins values, the source holds several entries; their conditions need not be identical. Equal entries are not always repeated.
# Legend:
# [1] = molecular target: T1, human wild-type CAR (CARwt) (Homo sapiens, UniProt Q14994); assay: CARwt luciferase reporter gene assay in HepG2; assay type: cell-based
# T1 construct: expressed in transfected cells; host or cells: HepG2
# Description: Rhesus monkey, mouse, and rat PXR expression vectors (100 ng/well each) were also obtained from GenScript. […] Carlberg (University of Kuopio, Kuopio, Finland).
# (§1) The cells were cultured in DMEM medium (Merck) supplemented with 10% fetal bovine serum.
# PPARα = PPARα (Homo sapiens, UniProt Q07869); assay: PPARα luciferase reporter assay, agonistic and antagonistic setups; assay type: cell-based; conditions: prototype ligand fenofibrate
# Description: (§2) For the farnesoid X receptor (FXR) luciferase gene reporter assay, the full-length expression vector was paired with pFXRE-luc luciferase construct. The p1A1-luc construct was used in the aryl hydrocarbon receptor (AhR) assays with pRL-TK for normalization. Gal4-LXR-α/β, and Gal4-PPAR-γ constructs were used with the pGAL4 UAS-luc construct. For the VDR assay, expression vector pSG5-hVDR together with pVDRE-luc constructs was used. Firefly and Renilla luciferase activities were analyzed using a Dual reporter assay (Promega). For the nuclear receptor assays, prototype ligands were used at the following concentrations: Calcitriol for VDR (100 nM), GW3965 for LXRα and LXRβ (10 μM), 6-OCA for FXR (1 μM), fenofibrate for PPARα (10 μM), estradiol for ERα and β (10 μM), rosiglitazone for PPARγ (10 μM), 3-MC for AhR (5 μM), and TCPOBOP for mCAR (10 μM). Detailed descriptions and protocols are detailed in our recent publication. ,
# rodent PXRs = assay: Rodent PXR orthologue luciferase reporter assays; assay type: cell-based, rat/mouse; conditions: PCN as prototypical inducer
# Description: The CYP3A4 gene promoter luciferase reporter construct (p3A4-luc) bears a distal XREM (−7836/–7208) and a proximal promoter sequence (prPXRE, −362/+53) from the CYP3A4 gene promoter region. […] The human PXR expression vector (variant 1, NM_003889.3) as well as vectors for mouse, rat, and monkey orthologues were described in our recent paper (39). […] Rhesus monkey, mouse, and rat PXR expression vectors (100 ng/well each) were also obtained from GenScript. […] Carlberg (University of Kuopio, Kuopio, Finland).
# as §1
# AhR = AhR (Homo sapiens, UniProt P35869); assay: AhR agonist reporter assay; assay type: cell-based; conditions: 10 µM MI891
# Description: as §2, with “publication. , […]” for “publication. ,”
# hydrophobic interactions. (F) Superimposed diagram of PXR bound with agonist (SJPYT-328) and antagonists (MI891 and SJPYT-331) to differentiate the agonist and antagonist interactions with helix 12 (H12). The interaction of the agonist with PXR residue (L428) is circled. (G) Extended nuclear receptor selectivity profile. […]
# [2] = molecular target: T2, PI3 Kinase (p110b/p85a)(h) (Homo sapiens, UniProt P42338); assay: Off-target kinase panel; assay type: biochemical; conditions: MI891 @ 1 µM
# T2 construct: purchased Eurofins (Millipore) KinaseProfiler, inferred from the naming style
# Description: (§3) To evaluate the selectivity of MI891, an off-target profiling study was performed using a panel of 58 kinases.
# CDK9/cyclin T1(h) = CDK9/cyclin T1(h) (Homo sapiens, UniProt P50750); assay: Off-target kinase panel; assay type: biochemical; conditions: MI891 @ 1 µM
# Description: as §3
# ROCK-I(h) = molecular target: T3, ROCK-I(h) (Homo sapiens, UniProt Q13464); assay: Off-target kinase panel; assay type: biochemical; conditions: MI891 @ 1 µM
# T3 construct: purchased Eurofins (Millipore) KinaseProfiler, inferred from the naming style
# Description: as §3
# CK1γ1(h) = CK1γ1(h) (Homo sapiens, UniProt Q9HCP0); assay: Off-target kinase panel; assay type: biochemical; conditions: MI891 @ 1 µM
# Description: as §3
# CDK1/cyclinB(h) = CDK1/cyclinB(h) (Homo sapiens, UniProt P06493); assay: Off-target kinase panel; assay type: biochemical; conditions: MI891 @ 1 µM
# Description: as §3
# IRAK4(h) = molecular target: T4, IRAK4(h) (Homo sapiens, UniProt Q9NWZ3); assay: Off-target kinase panel; assay type: biochemical; conditions: MI891 @ 1 µM
# T4 construct: purchased Eurofins (Millipore) KinaseProfiler, inferred from the naming style
# Description: as §3
# PRAK(h) = molecular target: T5, PRAK(h) (Homo sapiens, UniProt Q8IW41); assay: Off-target kinase panel; assay type: biochemical; conditions: MI891 @ 1 µM
# T5 construct: purchased Eurofins (Millipore) KinaseProfiler, inferred from the naming style
# Description: as §3
# Rse(h) = molecular target: T6, Rse(h) (Homo sapiens, UniProt Q06418); assay: Off-target kinase panel; assay type: biochemical; conditions: MI891 @ 1 µM
# T6 construct: purchased Eurofins (Millipore) KinaseProfiler, inferred from the naming style
# Description: as §3
# [3] = Microsomal stability, human microsomes; assay type: in vitro ADME; conditions: liver microsomes; 0.5 mg/mL human microsomes, 5 μM, up to 45 min; read-out: Microsomal stability, t1/2 (min), human
# Description: The protocols and reagents for the plasma protein binding assay and metabolic stability testing in human and mouse liver microsomes are detailed in our previous report. […] The stability of compounds was tested in human and mouse microsomes (ThermoFisher Scientific). Compounds were tested in triplicate with or without NADPH wells as a negative control for cytochrome P450 metabolism. […] Each assay included a substrate with known activity as a positive control. Time points were analyzed by LC/MS/MS. The peak area for the parent compound is compared to the time zero sample in order to assess the amount of remaining compound.
# T1 sequence (Q14994 1-348 isoform Q14994-2): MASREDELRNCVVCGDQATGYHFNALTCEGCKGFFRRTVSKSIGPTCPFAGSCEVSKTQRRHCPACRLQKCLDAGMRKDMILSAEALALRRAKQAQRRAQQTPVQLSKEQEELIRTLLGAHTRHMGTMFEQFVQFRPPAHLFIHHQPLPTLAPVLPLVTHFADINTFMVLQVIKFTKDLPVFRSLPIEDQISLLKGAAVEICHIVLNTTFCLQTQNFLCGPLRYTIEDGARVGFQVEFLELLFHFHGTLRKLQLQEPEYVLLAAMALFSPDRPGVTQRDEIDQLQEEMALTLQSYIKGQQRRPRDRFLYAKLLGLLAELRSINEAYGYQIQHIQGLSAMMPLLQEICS
# Sequence of CDK9/cyclin T1(h) (P50750 whole entry): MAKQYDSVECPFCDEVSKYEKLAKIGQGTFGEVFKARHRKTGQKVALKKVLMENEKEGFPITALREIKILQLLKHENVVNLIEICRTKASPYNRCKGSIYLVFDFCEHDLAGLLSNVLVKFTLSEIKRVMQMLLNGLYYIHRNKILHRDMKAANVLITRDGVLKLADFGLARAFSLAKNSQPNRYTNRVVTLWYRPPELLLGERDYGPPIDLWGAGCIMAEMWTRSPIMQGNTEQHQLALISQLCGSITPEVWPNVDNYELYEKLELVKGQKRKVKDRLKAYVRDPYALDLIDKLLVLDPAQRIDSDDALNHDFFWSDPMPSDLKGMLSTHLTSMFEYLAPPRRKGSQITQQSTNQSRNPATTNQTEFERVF
# Sequence of CDK9/cyclin T1(h) (O60563 whole entry partner): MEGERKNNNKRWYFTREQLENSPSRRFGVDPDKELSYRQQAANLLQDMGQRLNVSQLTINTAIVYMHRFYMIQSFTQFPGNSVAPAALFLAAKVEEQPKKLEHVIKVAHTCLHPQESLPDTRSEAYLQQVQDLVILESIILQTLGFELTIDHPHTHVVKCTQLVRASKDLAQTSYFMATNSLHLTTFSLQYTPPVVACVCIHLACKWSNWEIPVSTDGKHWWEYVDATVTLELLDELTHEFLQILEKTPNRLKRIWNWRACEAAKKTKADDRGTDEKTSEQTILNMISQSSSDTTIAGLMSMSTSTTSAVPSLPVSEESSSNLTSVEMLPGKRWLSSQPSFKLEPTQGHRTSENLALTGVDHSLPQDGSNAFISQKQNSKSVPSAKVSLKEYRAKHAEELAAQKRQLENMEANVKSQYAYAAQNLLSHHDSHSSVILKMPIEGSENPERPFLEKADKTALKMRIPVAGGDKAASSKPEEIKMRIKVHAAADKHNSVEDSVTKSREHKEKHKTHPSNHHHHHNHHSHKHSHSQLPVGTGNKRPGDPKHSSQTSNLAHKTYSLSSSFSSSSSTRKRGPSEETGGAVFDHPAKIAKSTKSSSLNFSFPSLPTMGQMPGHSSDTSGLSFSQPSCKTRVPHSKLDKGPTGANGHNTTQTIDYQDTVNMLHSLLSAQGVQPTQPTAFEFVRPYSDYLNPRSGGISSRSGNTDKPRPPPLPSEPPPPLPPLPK
# Sequence of AhR (P35869 11-848, species assumed): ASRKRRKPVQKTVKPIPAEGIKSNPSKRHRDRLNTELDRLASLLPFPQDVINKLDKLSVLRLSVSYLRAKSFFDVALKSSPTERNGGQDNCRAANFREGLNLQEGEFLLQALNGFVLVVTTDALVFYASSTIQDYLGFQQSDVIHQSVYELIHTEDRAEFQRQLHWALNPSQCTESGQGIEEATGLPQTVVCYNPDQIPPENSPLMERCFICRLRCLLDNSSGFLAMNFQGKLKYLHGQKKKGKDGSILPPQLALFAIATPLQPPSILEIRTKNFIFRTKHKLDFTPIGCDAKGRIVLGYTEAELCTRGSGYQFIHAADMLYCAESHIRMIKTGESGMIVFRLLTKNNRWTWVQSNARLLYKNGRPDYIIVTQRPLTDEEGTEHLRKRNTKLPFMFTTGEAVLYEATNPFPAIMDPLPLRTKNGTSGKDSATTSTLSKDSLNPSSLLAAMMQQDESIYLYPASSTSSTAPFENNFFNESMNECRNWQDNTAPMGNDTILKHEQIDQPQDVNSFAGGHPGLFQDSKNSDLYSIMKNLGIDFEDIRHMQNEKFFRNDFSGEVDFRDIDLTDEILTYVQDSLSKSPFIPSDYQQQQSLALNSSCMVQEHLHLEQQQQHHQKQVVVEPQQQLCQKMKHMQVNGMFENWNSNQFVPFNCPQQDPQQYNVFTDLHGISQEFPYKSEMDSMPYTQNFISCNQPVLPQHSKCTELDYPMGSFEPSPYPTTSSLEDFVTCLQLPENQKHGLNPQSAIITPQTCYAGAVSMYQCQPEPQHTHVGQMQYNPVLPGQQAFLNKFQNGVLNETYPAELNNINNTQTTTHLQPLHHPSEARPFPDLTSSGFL
# T5 sequence (Q8IW41 whole entry): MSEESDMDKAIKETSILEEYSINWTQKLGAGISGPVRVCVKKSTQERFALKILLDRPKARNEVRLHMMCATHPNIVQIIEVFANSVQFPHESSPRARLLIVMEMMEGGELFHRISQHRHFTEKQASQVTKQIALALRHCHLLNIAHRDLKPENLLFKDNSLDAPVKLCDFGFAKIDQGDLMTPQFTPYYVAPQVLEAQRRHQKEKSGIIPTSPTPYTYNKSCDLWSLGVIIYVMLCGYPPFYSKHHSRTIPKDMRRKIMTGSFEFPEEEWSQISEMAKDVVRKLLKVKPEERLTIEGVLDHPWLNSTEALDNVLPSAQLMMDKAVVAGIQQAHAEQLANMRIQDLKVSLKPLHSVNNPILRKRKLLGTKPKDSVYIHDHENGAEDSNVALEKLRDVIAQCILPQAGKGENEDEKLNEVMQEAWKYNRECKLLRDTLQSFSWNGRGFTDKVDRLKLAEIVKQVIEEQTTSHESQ
# Sequence of CK1γ1(h) (Q9HCP0 whole entry): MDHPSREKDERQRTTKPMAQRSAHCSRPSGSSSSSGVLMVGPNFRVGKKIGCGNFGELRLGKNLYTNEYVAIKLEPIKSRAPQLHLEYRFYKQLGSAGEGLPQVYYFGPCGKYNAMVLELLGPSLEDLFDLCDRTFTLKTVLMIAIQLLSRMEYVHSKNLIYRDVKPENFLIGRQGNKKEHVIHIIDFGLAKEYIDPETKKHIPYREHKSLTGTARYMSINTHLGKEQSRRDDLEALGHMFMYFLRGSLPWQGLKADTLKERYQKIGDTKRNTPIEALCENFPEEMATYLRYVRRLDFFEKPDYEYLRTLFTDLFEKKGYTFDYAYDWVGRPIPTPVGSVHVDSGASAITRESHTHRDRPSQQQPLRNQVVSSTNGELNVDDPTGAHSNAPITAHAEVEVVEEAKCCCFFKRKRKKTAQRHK
# T2 sequence (P42338 whole entry): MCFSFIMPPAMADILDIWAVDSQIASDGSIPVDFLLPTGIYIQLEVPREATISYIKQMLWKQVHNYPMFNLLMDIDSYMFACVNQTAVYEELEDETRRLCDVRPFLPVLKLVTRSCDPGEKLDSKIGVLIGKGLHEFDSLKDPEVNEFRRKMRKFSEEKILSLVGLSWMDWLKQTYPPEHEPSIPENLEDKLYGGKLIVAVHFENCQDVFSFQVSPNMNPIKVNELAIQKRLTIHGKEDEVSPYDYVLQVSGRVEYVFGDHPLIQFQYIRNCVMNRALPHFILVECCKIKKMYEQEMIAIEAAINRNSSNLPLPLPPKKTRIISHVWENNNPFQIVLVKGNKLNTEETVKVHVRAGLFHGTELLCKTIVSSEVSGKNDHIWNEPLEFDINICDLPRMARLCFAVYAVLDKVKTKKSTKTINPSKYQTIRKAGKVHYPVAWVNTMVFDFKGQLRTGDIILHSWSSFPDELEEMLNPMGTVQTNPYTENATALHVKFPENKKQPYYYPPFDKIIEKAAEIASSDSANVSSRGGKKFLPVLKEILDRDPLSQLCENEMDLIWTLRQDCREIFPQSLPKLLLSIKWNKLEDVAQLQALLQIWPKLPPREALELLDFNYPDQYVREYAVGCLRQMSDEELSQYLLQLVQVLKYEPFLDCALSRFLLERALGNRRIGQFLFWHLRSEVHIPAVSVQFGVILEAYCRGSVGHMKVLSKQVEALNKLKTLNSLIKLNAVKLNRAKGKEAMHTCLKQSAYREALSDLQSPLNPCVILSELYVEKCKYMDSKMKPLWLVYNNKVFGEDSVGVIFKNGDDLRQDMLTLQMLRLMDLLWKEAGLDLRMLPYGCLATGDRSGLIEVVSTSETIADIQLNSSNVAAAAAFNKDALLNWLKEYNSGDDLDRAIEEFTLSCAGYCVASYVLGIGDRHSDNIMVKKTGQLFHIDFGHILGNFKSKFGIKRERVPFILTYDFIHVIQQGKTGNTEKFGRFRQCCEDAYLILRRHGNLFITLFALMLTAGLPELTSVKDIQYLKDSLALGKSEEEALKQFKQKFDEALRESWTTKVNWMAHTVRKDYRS
# T2 sequence (P27986 whole entry partner): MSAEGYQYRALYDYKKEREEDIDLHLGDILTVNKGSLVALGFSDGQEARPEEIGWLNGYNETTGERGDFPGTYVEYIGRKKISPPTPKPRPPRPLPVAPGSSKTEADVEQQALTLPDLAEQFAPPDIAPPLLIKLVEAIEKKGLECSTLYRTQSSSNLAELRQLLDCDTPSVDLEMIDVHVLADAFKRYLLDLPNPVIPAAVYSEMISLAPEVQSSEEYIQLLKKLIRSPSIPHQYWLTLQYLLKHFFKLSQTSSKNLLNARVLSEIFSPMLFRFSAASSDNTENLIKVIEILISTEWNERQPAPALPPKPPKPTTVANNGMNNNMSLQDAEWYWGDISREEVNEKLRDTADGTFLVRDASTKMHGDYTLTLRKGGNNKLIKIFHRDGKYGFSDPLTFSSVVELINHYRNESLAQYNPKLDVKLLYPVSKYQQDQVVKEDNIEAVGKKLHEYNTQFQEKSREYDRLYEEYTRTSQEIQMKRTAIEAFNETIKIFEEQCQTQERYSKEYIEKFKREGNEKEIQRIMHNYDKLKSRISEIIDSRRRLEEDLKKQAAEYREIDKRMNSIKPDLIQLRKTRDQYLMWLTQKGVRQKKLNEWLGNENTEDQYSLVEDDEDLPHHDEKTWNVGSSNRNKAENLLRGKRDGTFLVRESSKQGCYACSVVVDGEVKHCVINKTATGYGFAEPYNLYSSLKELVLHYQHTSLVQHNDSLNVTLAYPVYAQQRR
smiles,measurement,setting,value
"NC(=O)c1cc(Cn2cc(-c3c(-c4ccc(Cl)cc4)nc4c(F)cc(F)cn34)nn2)ccc1Cl [Compound 11, 2-Chloro-5-((4-(2-(4-chlorophenyl)-6,8-difluoroimidazo[1,2-a]pyridin-3-yl)-1H-1,2,3-triazol-1-yl)methyl)-benzamide]",EC50,"[1]; HepG2, read-out: CARwt activation EC50",~137 µM and 137 µM
same,activation of CARwt,[1]; at concentrations up to 10 μM,no significant activation
same,agonistic or antagonistic activity on PPARα,PPARα,no significant agonistic or antagonistic activities
same,activity on rodent PXRs,rodent PXRs,no activities
same,agonistic effect on AhR,AhR,no agonistic effects
same,activity at 1 µM,[2],100%
same,activity at 1 µM,CDK9/cyclin T1(h),124%
same,activity at 1 µM,ROCK-I(h),97%
same,activity at 1 µM,CK1γ1(h),100%
same,activity at 1 µM,CDK1/cyclinB(h),96%
same,activity at 1 µM,IRAK4(h),112%
same,activity at 1 µM,PRAK(h),81%
same,activity at 1 µM,Rse(h),109%
same,half-life at 5 μM,[3],> 45 min
